Source: patent US20220364135A1, “MODIFIED PROPIONIBACTERIUM AND METHODS OF USE” (priority 2019, published 2022)

Legend:
cbiMCbl riboswitch = experiment: FbFP reporter assay, WT cbiMCbl riboswitch in FbFP-ΔcobA strain; type: cell-based, P. UF1; conditions: for FbFP expression with VB12 analogues: various concentrations of analogues
Description: (§1) To generate the cbiMCbl riboswitch-FbFP translational fusion constructs, the 5′ UTR (FIG. 6C) containing the promoter of cobA operon, wild-type cbiMCbl riboswitch and ribosome-binding site was PCR amplified from P. UF1 genome (NCBI Genome database, CP018002) with primers S-cobA-1 and S-cobA 22. The codon-optimized FbFP gene (32) was synthesized (GenScript, Piscataway, N.J.) and PCR amplified using primers S-cobA 33 and S-cobA 4. Overlapping PCR was used to ligate the 5′ UTR and FbFP gene using Primers cobA-1 and S-cobA-4, which was subsequently cloned into plasmid pYMZ between BamHI and XbaI sites. Mutations of the cbiMCbl riboswitch were generated by site-directed mutagenesis or overlapping PCR (Table S1). cbiM, cbiN, cbiO, cobA, and tetR reporters were constructed using similar strategies. All plasmids were verified via Sanger sequencing (Genewiz, South Plainfield, N.J.) and introduced into P. UF1 or ΔcobA P. UF1 by electroporation.
(§2) FbFP reporter assays: To perform FbFP fluorescence intensity measurement, bacteria were cultivated for three days in triplicate, washed, and resuspended with PBS. The excitation and emission wavelengths of FbFP were set at 452 nm and 495 nm on a microplate reader (BioTek, Winooski, Vt.), respectively (48). FbFP intensity at 495 nm was normalized by corresponding OD600 values for each sample. P. UF1 strain with an empty vector was used as the baseline for calculation of fluorescence intensity.

cobA operon [1] = experiment: Western blot of cobA operon gene expression under WT cbiMCbl riboswitch in ΔcobA P. UF1 reporter strains; type: cell-based; conditions: for cbiM expression with VB12 analogues: various concentrations of analogues
Description: as §1
Western blot: Bacteria were cultivated for three days, and washed three times, followed by lysozyme digestion (10 mg/ml) for 2 hours at 37° C. Cell lysates were separated by 12% SDS-PAGE, transferred to PVDF membranes (Sigma Aldrich, St. Louis, Mo.), and blocked with Odyssey blocking buffer (Li-Cor Biosciences, Lincoln, Nebr.). Subsequently, membranes were incubated with anti-HIS-tag antibody (Thermo Fisher Scientific, Waltham, Mass.), anti-TetR antibody (Takara Bio, Mountain view, CA), anti-CobA serum antibodies, or anti-LspA serum antibodies (Stock in our lab) for 2 h at room temperature in the blocking buffer with 0.02% Tween 20. After washing with TBST (20 mM Tris, 150 mM NaCl and 0.1% Tween 20, pH 7.4), membranes were incubated with IRDye 680RD goat anti-mouse secondary antibody (Li-Cor Biosciences, Lincoln, Nebr.) for 1 hour at room temperature in the blocking buffer with 0.02% Tween 20. After washing with TBS, the proteins were detected using an Odyssey infrared imaging system (Li-Cor Biosciences, Lincoln, Nebr.). LspA was used as an internal control.

[2] = test system: SL1-deleted riboswitch (ΔSL1); experiment: FbFP reporter assay, SL1-deleted riboswitch in FbFP-ΔcobA strain; type: cell-based, P. UF1
Description: as §1
as §2, with “FbFP intensity at 495 nm was normalized by corresponding OD600 values for each sample.” left out

[3] = test system: SL1-deleted riboswitch (ΔSL1); experiment: Western blot of cbiM expression, SL1-deleted riboswitch in CbiM-ΔcobA strain; type: cell-based, P. UF1; conditions: VB12 0-5000 ng/ml
Description: as §1
Western blot: Bacteria were cultivated for three days, and washed three times, followed by lysozyme digestion (10 mg/ml) for 2 hours at 37° C. […] After washing with TBS, the proteins were detected using an Odyssey infrared imaging system (Li-Cor Biosciences, Lincoln, Nebr.). […]

5′ UTR of cobA operon = experiment: FbFP and cbiM reporter expression in FbFP-WT and CbiM-WT strains; type: cell-based, P. UF1; conditions: FbFP-WT and CbiM-WT cultures
Description: as §1
[…] The excitation and emission wavelengths of FbFP were set at 452 nm and 495 nm on a microplate reader (BioTek, Winooski, Vt.), respectively (48). […] P. UF1 strain with an empty vector was used as the baseline for calculation of fluorescence intensity.
[…] After washing with TBS, the proteins were detected using an Odyssey infrared imaging system (Li-Cor Biosciences, Lincoln, Nebr.). […]

cobA operon [4] = experiment: qRT-PCR of cobA operon transcription; type: cell-based; conditions: P. UF1 incubated with various concentrations of VB12
Description: Quantitative RT-PCR: Total RNA was extracted from various bacterial cultures using Trizol reagent (Thermo Fisher Scientific, Waltham, Mass.), and the RNA mixtures were further purified using the Aurum Total RNA Mini Kit (Bio-Rad, Hercules, Calif.). The cDNA was synthesized from total RNA using iScript Advanced cDNA Synthesis Kit (Bio-Rad, Hercules, Calif.). Quantitative real-time was accomplished with SsoAdvanced Universal SYBR Green Supermix (Bio-Rad, Hercules, Calif.) on a CFX96 real-time PCR system (Bio-Rad, Hercules, Calif.) using primers listed in Table 2 above. Results were normalized to those obtained from groL2 gene.

## C/C1=C2/[N-][C@H]([C@H](CC(N)=O)[C@@]2(C)CCC(=O)NC[C@@H](C)OP(=O)([O-])O[C@H]2[C@@H](O)[C@@H](n3cnc4cc(C)c(C)cc43)O[C@@H]2CO)[C@]2(C)N=C(/C(C)=C3N=C(/C=C4N=C1[C@@H](CCC(N)=O)C\4(C)C)[C@@H](CCC(N)=O)[C@]\3(C)CC(N)=O)[C@@H](CCC(N)=O)[C@]2(C)CC(N)=O.[Co+3].[OH-] [hydroxocobalamin]
cbiMCbl riboswitch; FbFP-ΔcobA strain
  FbFP expression with VB12 analogues: similarly downregulated
cobA operon [1]; CbiM-ΔcobA strain
  cbiM expression with VB12 analogues: similarly downregulated

## cyanocobalamin
cbiMCbl riboswitch; FbFP-ΔcobA strain
  FbFP expression with VB12 analogues: similarly downregulated
cobA operon [1]; CbiM-ΔcobA strain
  cbiM expression with VB12 analogues: similarly downregulated

## C/C1=C2/[N-][C@H]([C@H](CC(N)=O)[C@@]2(C)CCC(=O)NC[C@@H](C)OP(=O)([O-])O[C@H]2[C@@H](O)[C@@H](n3cnc4cc(C)c(C)cc43)O[C@@H]2CO)[C@]2(C)N=C(/C(C)=C3N=C(/C=C4N=C1[C@@H](CCC(N)=O)C\4(C)C)[C@@H](CCC(N)=O)[C@]\3(C)CC(N)=O)[C@@H](CCC(N)=O)[C@]2(C)CC(N)=O.[CH2-][C@H]1O[C@@H](n2cnc3c(N)ncnc32)[C@H](O)[C@@H]1O.[Co] [adenosylcobalamin]
cbiMCbl riboswitch; FbFP-ΔcobA strain
  FbFP expression with VB12 analogues: similarly downregulated
cobA operon [1]; CbiM-ΔcobA strain
  cbiM expression with VB12 analogues: similarly downregulated

## C/C1=C2/[N-][C@H]([C@H](CC(N)=O)[C@@]2(C)CCC(=O)NC[C@H](C)OP(=O)([O-])O[C@H]2[C@@H](O)[C@@H](n3cnc4cc(C)c(C)cc43)O[C@@H]2CO)[C@]2(C)N=C(/C(C)=C3N=C(/C=C4N=C1[C@@H](CCC(N)=O)C\4(C)C)[C@@H](CCC(N)=O)[C@]\3(C)CC(N)=O)[C@@H](CCC(N)=O)[C@]2(C)CC(N)=O.[CH3-].[Co+3] [methylcobalamin]
cbiMCbl riboswitch; FbFP-ΔcobA strain
  FbFP expression with VB12 analogues: similarly downregulated
cobA operon [1]; CbiM-ΔcobA strain
  cbiM expression with VB12 analogues: similarly downregulated

## Vitamin B12 [VB12]
cbiMCbl riboswitch
  VB12 concentration completely inhibiting expression of downstream genes by cbiMCbl riboswitch: 750 µM
cbiMCbl riboswitch; FbFP-ΔcobA strain, WT riboswitch
  VB12 concentration at which expression of FbFP was completely abated: 500 ng/mL
cbiMCbl riboswitch; FbFP-ΔcobA strain, WT riboswitch, VB12 0-2500 ng/ml
  half maximal inhibitory concentration (IC50) of VB12 on FbFP expression: 0.0752 µg/mL
cbiMCbl riboswitch; WT riboswitch, 250 ng/ml VB12
  repression of FbFP expression: ~10 fold
[2]; FbFP-ΔcobA strain, ΔSL1 riboswitch, VB12 0-5000 ng/ml
  IC50 of VB12 on FbFP expression, SL1-deleted riboswitch: 12.962 µg/mL
[2]; ΔSL1 vs WT riboswitch
  IC50 with ΔSL1 relative to WT riboswitch: 256 times
cobA operon [1]; CbiM-ΔcobA strain, VB12 0-2500 ng/ml
  cbiM expression (Western blot, HIS-tag antibody): dose-dependent inhibition
cobA operon [1]; CbiN-ΔcobA and CbiO-ΔcobA cultures, VB12 0-25000 ng/ml
  expression of cbiN and cbiO (Western blot): dampened
cobA operon [1]; CobA-ΔcobA strain, VB12 0-25000 ng/ml
  cobA expression (Western blot): dose-dependent inhibition but to a lesser extent
[3]
  cbiM expression, ΔSL1 compared to WT riboswitch: no repression
5′ UTR of cobA operon
  expression of FbFP and cbiM: significantly decreased
cobA operon [4]
  mRNA levels of cbiM, cbiN, cbiO and cbiQ: significantly repressed
